Reference: the Deep4Chem optical property database
Several values for one entry are separate records, joined by “and”; a condition that tells them apart may be missing. Equal entries are not always repeated.

Experiment: solvent given as SMILES
[1] = in O=P(c1ccccc1)(c1ccccc1)c1ccccc1Oc1ccccc1P(=O)(c1ccccc1)c1ccccc1

O=C1c2ccccc2C2=C(c3ccccn3)NN=C(c3ccccn3)C2c2ccccc21 (stereo not drawn)
fluorescence lifetime (in CC#N): 12.8 ns

COC(=O)c1[nH]c(-c2ccc(Br)cc2)c2nnc3ccc(OC)cc3c12
fluorescence lifetime (in ClCCl): 0.58 ns

N#Cc1ccc2[nH]ccc2c1
fluorescence lifetime (in C1CCOC1): 4.4 ns | fluorescence lifetime (in C1COCCO1): 4.2 ns | fluorescence lifetime (in CC#N): 4.4 ns | fluorescence lifetime (in CC(C)O): 4.6 ns | fluorescence lifetime (in CCO): 4.3 ns | fluorescence lifetime (in CO): 2.9 ns | fluorescence lifetime (in CS(C)=O): 7.1 ns | fluorescence lifetime (in NC=O): 5.4 ns | fluorescence lifetime (in O): 0.3 ns | fluorescence lifetime (in OCC(F)(F)F): 0.1 ns | fluorescence lifetime (in [2H]O[2H]): 0.4 ns

Cc1ccc(/C2=c3\cc/c(o3)=C(\c3ccc(C)cc3)c3ccc([nH]3)-c3ccc4n3[P-](=O)(=O)[N+]3=C(C=CC3=C4c3cccs3)c3ccc2[nH]3)cc1
fluorescence lifetime (in ClC(Cl)Cl): 4.3 ns

CC(C)(C)c1ccc2c(c1)B1c3cc(C(C)(C)C)ccc3Oc3cc(N4c5ccccc5C(C)(C)c5ccccc54)cc(c31)O2
fluorescence lifetime (in Cc1ccccc1): 6.6 ns

F[B-]1(F)OC(c2ccc(C(F)(F)F)cc2)=Cc2ccc3ccccc3[n+]21
fluorescence lifetime (in ClC(Cl)Cl): 0.92 ns

CCCCCCCCC1(CCCCCCCC)c2cc(-c3ccc(C(=O)OC)cc3)ccc2-c2ccc(-c3ccc(C(=O)OC)cc3)cc21
fluorescence lifetime (in CN(C)C=O): 1.48 ns

Cc1ccc(C#Cc2ccc(C#Cc3ccc(C#Cc4ccccc4C#N)cc3C#N)cc2C#N)cc1
fluorescence lifetime (in ClC(Cl)Cl): 1.23 ns

CCCCCn1c2ccc(S(=O)(=O)O)cc2c(=O)c2cc(S(=O)(=O)O)ccc21
fluorescence lifetime (in CS(C)=O): 10.2 ns | fluorescence lifetime (in O): 15.6 ns

COc1ccc([Si](C)(C)C)c2ccccc12
fluorescence lifetime (in C1CCCCC1): 10 ns

O=C(O)CCCCCNC(=O)c1cccc2c(=O)c3ccccc3[nH]c12
fluorescence lifetime (in O): 4.2 ns

CCCCN1C(=O)c2cc(Oc3ccc(C(C)(C)C)cc3)c3c4c(Oc5ccc(C(C)(C)C)cc5)cc5c(=O)n6c(c7cc(Oc8ccc(C(C)(C)C)cc8)c(c8c(Oc9ccc(C(C)(C)C)cc9)cc(c2c38)C1=O)c4c57)=Cc1cccc[n+]1[B-]6(F)F
fluorescence lifetime (in C1CCOC1): 3.79 ns | fluorescence lifetime (in Cc1ccccc1): 4.1 ns | fluorescence lifetime (in ClCCl): 4.51 ns

CN(C)c1ccc(/C=C/c2cc[n+](CCCCCCCCCCCC[n+]3ccc(/C=C/c4ccc(N(C)C)cc4)cc3)cc2)cc1
fluorescence lifetime (in ClC(Cl)Cl): 0.203 ns

Cc1ccc(N(c2ccccc2)c2ccc3ccc4c(N(c5ccccc5)c5ccc(C)cc5)ccc5ccc2c3c54)cc1
fluorescence lifetime (in ClCCl): 6.2 ns

O=C1c2ccc(-c3ccc(N(c4ccc(-c5ccccc5)cc4)c4ccc(-c5ccccc5)cc4)cc3)cc2C(=O)c2ccc(-c3ccc(N(c4ccc(-c5ccccc5)cc4)c4ccc(-c5ccccc5)cc4)cc3)cc21
fluorescence lifetime (in Cc1ccccc1): 11.2 ns | fluorescence lifetime (in c1ccc2c(c1)c1ccccc1n2-c1ccc(-c2ccc(-n3c4ccccc4c4ccccc43)cc2)cc1): 10.2 ns

F[B-]1(F)OC(c2ccccc2)=Cc2cc(Cl)nc[n+]21
fluorescence lifetime (in Cc1ccccc1): 0.19 ns

N#Cc1c(-n2c3ccccc3c3cc(Br)ccc32)c(C#N)c(-n2c3ccccc3c3cc(Br)ccc32)c(-n2c3ccccc3c3cc(Br)ccc32)c1-n1c2ccccc2c2cc(Br)ccc21
fluorescence lifetime (in Cc1ccccc1): 0.4 ns

CN(C)c1ccc2c(c1)C(=O)NC2=O
fluorescence lifetime (in C1CCOC1): 13.8 ns | fluorescence lifetime (in C1COCCO1): 14.9 ns | fluorescence lifetime (in CC#N): 3.9 ns

Cc1cc2nc3c(=O)n(C)c(=O)n(C)c3nc2cc1C
fluorescence lifetime (in CC#N): 0.64 ns

N#Cc1c(-n2c3ccccc3c3cc(I)ccc32)c(-n2c3ccccc3c3cc(I)ccc32)c(C#N)c(-n2c3ccccc3c3cc(I)ccc32)c1-n1c2ccccc2c2cc(I)ccc21
fluorescence lifetime (in Cc1ccccc1): 0.3 ns

CC(C)(C)c1ccc(-c2nc3c4ccc(-c5c6ccccc6cc6ccccc56)cc4c4cc(-c5c6ccccc6cc6ccccc56)ccc4c3n2-c2ccc(C(C)(C)C)cc2)cc1
fluorescence lifetime (in ClCCl): 6.1 ns

CCN(CC)c1ccc2cc(-c3nc4ccccc4n3C)c(=O)oc2c1
fluorescence lifetime (in CC#N): 2.8 ns

CC1=CC(/C=C/c2ccc(N(C)C)cc2)=[N+]2C1=C(c1ccc(C#CCO[C@@H]3O[C@H](CO)[C@@H](O)C(O)[C@H]3O)cc1)c1c(C)cc(/C=C/c3ccc(N(C)C)cc3)n1[B-]2(F)F (stereo partly drawn)
fluorescence lifetime (in CC#N): 2.3 ns

c1cc2ccc3ccc4cc3c2cc1c1ccc2ccc3ccc(cc3c2c1)c1ccc2ccc3ccc4cc3c2c1
fluorescence lifetime (in Cc1ccccc1): 6.5 ns

Cc1ccc(C2=Nc3cccc4[n+]3[B-](c3ccccc3)(N2)NC(c2ccc(C)cc2)=N4)cc1
fluorescence lifetime (in ClCCl): 2.6 ns

CC(C)(C)c1ccc2c(c1)c1cc3c4cc(C(C)(C)C)ccc4c4c5c6ccc(C(C)(C)C)cc6c6cc7c8cc(C(C)(C)C)ccc8c8c2c1c(c34)c(c78)c65
fluorescence lifetime (in CCCCCC): 0.61 ns | fluorescence lifetime (in CCOCC): 0.618 ns | fluorescence lifetime (in Cc1ccccc1): 0.606 ns

C(=C\c1ccc(N(c2ccccc2)c2ccccc2)cc1)/c1ccc(/C=C/c2ccc(N(c3ccccc3)c3ccccc3)cc2)cc1
fluorescence lifetime (in C1CCOC1): 1.25 ns | fluorescence lifetime (in CS(C)=O): 1.53 ns | fluorescence lifetime (in Cc1ccccc1): 0.99 ns

N#Cc1c(-n2c3ccc(Br)cc3c3cc(Br)ccc32)c(-n2c3ccc(Br)cc3c3cc(Br)ccc32)c(C#N)c(-n2c3ccc(Br)cc3c3cc(Br)ccc32)c1-n1c2ccc(Br)cc2c2cc(Br)ccc21
fluorescence lifetime (in Cc1ccccc1): 0.3 ns

O=C(c1ccc(-n2c3ccccc3c3cc(-n4c5ccccc5c5ccccc54)ccc32)cc1)c1ccc(-n2c3ccccc3c3cc(-n4c5ccccc5c5ccccc54)ccc32)cn1
fluorescence lifetime [1]: 62 ns

CCCCCCCCC1(CCCCCCCC)c2cc(-c3ccc([Si](C)(C)C)cc3)ccc2-c2ccc(-c3ccc([Si](C)(C)C)cc3)cc21
fluorescence lifetime (in CN(C)C=O): 1.01 ns

F[B-]1(F)Oc2ccccc2-c2cc(-n3c4ccc(-c5ccccc5)cc4c4cc(-c5ccccc5)ccc43)cc[n+]21
fluorescence lifetime [1]: 6.3 ns

Cc1ccccc1-c1cc(-c2ccc(N3c4ccccc4C(C)(C)c4ccccc43)cc2)nc(-c2ccccc2)n1
fluorescence lifetime (in Cc1ccccc1): 2.76 ns | fluorescence lifetime (in ClCCl): 22.7 ns

COc1cc(/C=C/C(=O)CC(=O)/C=C/c2ccc(O)c(OC)c2)ccc1O
fluorescence lifetime (in C1CCCCC1): 0.064 ns | fluorescence lifetime (in CC#N): 0.376 ns | fluorescence lifetime (in CN(C)C=O): 0.194 ns | fluorescence lifetime (in CO): 0.148 ns | fluorescence lifetime (in CS(C)=O): 0.196 ns | fluorescence lifetime (in c1ccccc1): 0.201 ns

CCCCCCCCC1(CCCCCCCC)c2cc(-c3ccc(C#N)cc3)ccc2-c2ccc(-c3ccc(C#N)cc3)cc21
fluorescence lifetime (in CN(C)C=O): 0.95 ns

CC(C)(C)c1ccc2cc3c4cccc5cccc(c6cc(C(C)(C)C)cc(c2c1)c63)c54
fluorescence lifetime (in CC1CCCCC1): 3.6 ns

CN(C)c1ccc2nc(-c3ccccc3)sc2c1
fluorescence lifetime (in C1CCCCC1): 2.1 ns

CCn1c2ccsc2c2c3nsnc3c3c4sccc4n(CC)c3c21
fluorescence lifetime (in C1CCOC1): 23.7 ns | fluorescence lifetime (in CCOC(C)=O): 24.2 ns | fluorescence lifetime (in CN(C)C=O): 22.1 ns | fluorescence lifetime (in Cc1ccccc1): 19.4 ns | fluorescence lifetime (in ClCCl): 16.6 ns

COC(=O)c1ccc(Oc2ccc3c4c(cccc24)C(=O)N(c2c(C(C)C)cccc2C(C)C)C3=O)cc1
fluorescence lifetime (in ClCCl): 3.37 ns

CC1(C)c2cc(C#N)ccc2-c2ccc(N3c4ccccc4Oc4ccccc43)cc21
fluorescence lifetime (in C1CCCCC1): 1.89 ns | fluorescence lifetime (in C1CCOC1): 9.74 ns | fluorescence lifetime (in CC#N): 1.23 ns | fluorescence lifetime (in Cc1ccccc1): 4.94 ns | fluorescence lifetime (in ClC(Cl)Cl): 11.6 ns

COc1c(-c2ccc(N(C)C)cc2)oc2ccccc2c1=O
fluorescence lifetime (in C1CCCCC1): 0.67 ns | fluorescence lifetime (in C1CCOC1): 2.05 ns | fluorescence lifetime (in CC#N): 2.71 ns | fluorescence lifetime (in CCOC(C)=O): 1.67 ns | fluorescence lifetime (in CCOCC): 0.88 ns

O=c1c2ccccc2[nH]c2ccccc12
fluorescence lifetime (in CS(C)=O): 9.1 ns

CCCCCCn1c2cc(C(=O)OCC)ccc2c2c1c1ccc(C(=O)OCC)cc1n2CCCCCC
fluorescence lifetime (in CCCO): 6.3 ns

CCN(CC)c1ccc2cc(-c3nc4ccccc4s3)c(=O)oc2c1
fluorescence lifetime (in C1CCCCC1): 2.38 ns | fluorescence lifetime (in CC1CCCCC1): 2.32 ns | fluorescence lifetime (in CC#N): 3.2 ns and 2.55 ns | fluorescence lifetime (in CCC(C)CC): 2.38 ns | fluorescence lifetime (in CCCCCC): 2.37 ns | fluorescence lifetime (in CCO): 2.5 ns | fluorescence lifetime (in CCOC(C)=O): 2.46 ns

Cc1cc(C)c2nc3c(=O)[nH]c(=O)[nH]c3nc2c1
fluorescence lifetime (in CC#N): 1.24 ns
